Assay results as given in PubChem BioAssay (NCI).
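In this assay, cells in 96-well plates receive the compound at five concentrations for 48 hours. Endpoints are linearly interpolated between the surrounding concentrations. GI50 is the concentration that inhibits growth by half. TGI denotes the concentration required for complete inhibition of growth.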

Legend:
Experiment in all cases: NCI anticancer screen, dose series, 48 h
[1] = test system: MCF7 breast
[2] = test system: HOP-62 NSCLC
[3] = test system: SK-MEL-5 melanoma
[4] = test system: MDA-MB-435
[5] = test system: HOP-92 NSCLC
[6] = test system: MDA-MB-231 breast
[7] = test system: UACC-62 melanoma
[8] = test system: SR leukemia
[9] = test system: U251 CNS
[10] = test system: KM12 colon
[11] = test system: EKVX NSCLC
[12] = test system: LOX IMVI melanoma
[13] = test system: SNB-19 CNS
[14] = test system: SNB-75 CNS
[15] = test system: NCI-H226 lung
[16] = test system: OVCAR-3 ovarian
[17] = test system: DU-145 prostate
[18] = test system: HT29 colon
[19] = test system: MOLT-4 leukemia
[20] = test system: PC-3 prostate
[21] = test system: NCI-H460 lung
[22] = test system: SN12C renal
[23] = test system: CCRF-CEM leukemia
[24] = test system: SF-268 CNS
[25] = test system: RXF 393 renal
[26] = test system: SF-539 CNS
[27] = test system: M14 melanoma
[28] = test system: HCT-116 colon
[29] = test system: CAKI-1 renal

O=S(=O)(NC1=NCCN1C(=S)SN1CCn2c1nsc2=S)c1cccc(OC(F)(F)F)c1
GI50 [1]: 4.17 µM | TGI [1]: 17.2 µM | GI50 [2]: 8 µM | TGI [2]: 20.3 µM | GI50 [3]: 16.6 µM | TGI [3]: 32.8 µM | GI50 [4]: 5.86 µM | TGI [4]: 22.1 µM | GI50 [5]: 4.45 µM | TGI [5]: 20.4 µM | GI50 [6]: 14.1 µM | TGI [6]: 35.4 µM | GI50 [7]: 9.68 µM | TGI [7]: 21.6 µM | GI50 [8]: 2.77 µM | TGI [8]: > 100 µM | GI50 [9]: 17.2 µM | TGI [9]: 30.9 µM | GI50 [10]: 10.3 µM | TGI [10]: 24.5 µM | GI50 [11]: 44 µM | TGI [11]: > 100 µM | GI50 [12]: 3.71 µM | TGI [12]: 12.4 µM | GI50 [13]: 18 µM | TGI [13]: 45.4 µM | GI50 [14]: 16.2 µM | TGI [14]: 38.9 µM | GI50 [15]: 16.2 µM | TGI [15]: 31.7 µM | GI50 [16]: 5.07 µM | TGI [16]: 16.4 µM | GI50 [17]: 14.1 µM | TGI [17]: 29.6 µM | GI50 [18]: 6.91 µM | TGI [18]: 26.4 µM | GI50 [19]: 2.71 µM | TGI [19]: 10.8 µM | GI50 [20]: 9.94 µM | TGI [20]: 26.4 µM | GI50 [21]: 13.4 µM | TGI [21]: 41.4 µM | GI50 [22]: 11.3 µM | TGI [22]: 26.7 µM | GI50 [23]: 2.16 µM | TGI [23]: 4.22 µM | GI50 [24]: 11.2 µM | TGI [24]: 34.4 µM | GI50 [25]: 2.42 µM | TGI [25]: 6 µM | GI50 [26]: 19.8 µM | TGI [26]: 37.7 µM | GI50 [27]: 13 µM | TGI [27]: 28.1 µM | GI50 [28]: 10.2 µM | TGI [28]: 21.9 µM | GI50 [29]: 17.8 µM | TGI [29]: 43.5 µM
